Test results: publication PMC5829251, “NAD^+ analog reveals PARP-1 substrate-blocking mechanism and allosteric communication from catalytic center to DNA-binding domains” (Nature Communications, 2018)

Key:
[1] = biological target: T1, PARP-1 triple mutant E763/D766/D770A (Homo sapiens, UniProt P09874, D766A/D770A/E763A); assay: DSF, full-length PARP-1 E763/D766/D770A; assay type: binding; details: BAD 1250 μM
T1 construct: Full-length PARP-1 WT (residues 1–1014) was cloned in pET28 vector and site-directed mutagenesis was performed; made in house; host or cells: E. coli
T1 sequence (P09874 whole entry E763A/D766A/D770A, the tested form may be a part): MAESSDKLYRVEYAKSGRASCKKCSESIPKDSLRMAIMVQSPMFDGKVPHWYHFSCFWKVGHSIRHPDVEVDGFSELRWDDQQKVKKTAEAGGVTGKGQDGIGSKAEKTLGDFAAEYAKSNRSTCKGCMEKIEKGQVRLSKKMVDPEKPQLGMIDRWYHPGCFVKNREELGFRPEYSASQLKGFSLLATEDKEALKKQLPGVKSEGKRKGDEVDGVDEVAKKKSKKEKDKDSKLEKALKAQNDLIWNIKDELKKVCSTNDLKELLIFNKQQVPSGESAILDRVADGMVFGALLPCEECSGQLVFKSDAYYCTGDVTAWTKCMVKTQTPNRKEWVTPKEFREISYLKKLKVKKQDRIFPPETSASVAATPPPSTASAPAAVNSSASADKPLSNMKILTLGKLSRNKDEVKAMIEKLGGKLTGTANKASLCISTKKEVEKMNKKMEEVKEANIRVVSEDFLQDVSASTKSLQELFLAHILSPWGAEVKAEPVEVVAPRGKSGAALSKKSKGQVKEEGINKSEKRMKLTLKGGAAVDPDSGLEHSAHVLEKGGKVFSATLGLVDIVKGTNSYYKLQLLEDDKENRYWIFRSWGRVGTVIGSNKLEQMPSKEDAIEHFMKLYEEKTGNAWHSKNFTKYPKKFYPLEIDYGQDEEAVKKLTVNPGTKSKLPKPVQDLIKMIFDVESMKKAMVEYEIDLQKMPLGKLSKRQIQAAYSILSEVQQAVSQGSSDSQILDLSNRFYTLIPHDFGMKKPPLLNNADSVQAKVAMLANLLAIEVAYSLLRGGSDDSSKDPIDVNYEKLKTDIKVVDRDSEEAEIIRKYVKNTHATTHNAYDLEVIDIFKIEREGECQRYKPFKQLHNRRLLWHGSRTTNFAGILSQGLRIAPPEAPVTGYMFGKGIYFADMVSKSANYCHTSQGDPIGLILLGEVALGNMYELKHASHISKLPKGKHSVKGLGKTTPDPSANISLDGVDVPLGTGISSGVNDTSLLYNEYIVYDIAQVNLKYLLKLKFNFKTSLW
Procedure: (§1) DSF experiments were performed as described, [13] using 5 µM protein, 2.5 µM DNA when indicated and various concentrations of compound (BAD, carba-NAD^+, benzamide, and ADP-ribose) as indicated in Fig. 1 and Fig. 3. Experiments were performed on a Roche LightCycler 480 RT-PCR. Reactions including DNA were performed with a 26- or 28-base pair (bp) unphosphorylated oligonucleotide for PARP-1, a 28-bp 5´-phosphorylated (5´P) oligonucleotide for PARP-2, and a 47-bp oligonucleotide including a central 5´P nick for PARP-3^13 in the following buffer: 25 mM Hepes pH 8.0, 150 mM NaCl, 1 mM EDTA, and 0.1 mM TCEP. Reactions with PARP-3 were conducted at lower ionic strength to allow binding to DNA as described (25 mM Hepes pH 8.0, 50 mM NaCl, 1 mM EDTA and 0.1 mM TCEP)[13]. ΔTM values were calculated by subtracting the TM determined for the protein in the absence of compound from the TM determined in the presence of compound. Experiments were performed in triplicate and a Boltzmann sigmoid was fit to the data to determine the TM values (KaleidaGraph).

PARP-1 D45A = biological target: T2, PARP-1 D45A (Homo sapiens, UniProt P09874, D45A); assay: DSF, full-length PARP-1 D45A with or without DNA; assay type: binding; details: for TM: Figure 3b, BAD 1250 μM, in °C (unit assumed)
T2 construct: Full-length PARP-1 WT (residues 1–1014) was cloned in pET28 vector and site-directed mutagenesis was performed; made in house; host or cells: E. coli
T2 sequence (P09874 whole entry D45A, the tested form may be a part): as the sequence (P09874 whole entry E763A/D766A/D770A, the tested form may be a part) above, with D45A, A763E, A766D, A770D counted along it
Procedure: as §1

PARP-1 ΔHD = assay: Fluorescence polarization DNA competition assay, PARP-1 ΔHD; assay type: binding, human; details: 40 nM PARP-1 ΔHD, 20 nM labeled DNA, BAD 500 μM
Procedure: For the DNA competition assay, 40 nM PARP-1 WT, or PARP-1 ΔHD, was incubated with 20 nM of dumbbell DNA with a central nick carrying an internal fluorescent FAM group (5′-GCT GAG C/FAMT/T CTGGTGAAGCTCAGCTCGCGGCAGCTGGTGCTGCCGCGA-3′) for 30 min at RT in 12 mM Hepes pH 8.0, 60 mM KCl, 8 mM MgCl2, 4% glycerol, 5.7 mM beta-mercaptoethanol, 0.05 mg per ml bovine serm albumin with or without BAD or benzamide (500 μM). A competitor unlabeled DNA of the same sequence was added at 100 nM and FP was measured over time on a VictorV plate reader (Perkin Elmer). For the DNA affinity measurement assay, increasing concentrations of PARP-1 WT were incubated for 30 min at RT with 5 nM of dumbbell DNA probe carrying a nick (described above) in the absence or presence of BAD or benzamide (100 μM) in the following buffer: 12 mM Hepes pH 8.0, 250 mM NaCl, 4% glycerol, 5.7 mM beta-mercaptoethanol, 0.05 mg per ml bovine serum albumin.

In the case of `NC(=O)c1cccc(C2OC(COP(=O)(O)OP(=O)(O)OCC3OC(n4cnc5c(N)ncnc54)C(O)C3O)C(O)C2O)c1` (stereo not drawn) [BAD, benzamide adenine dinucleotide], the TM ([1]; Figure 3a, no DNA, TM without BAD 45.74, in °C (unit assumed)) is reported as 50.13, the “TM change in the presence of BAD” value ([1]; did not require the presence of DNA) is reported as “increase in TM” and the “TM shift in the presence of BAD and DNA” value (PARP-1 D45A; D45A (Zn1–WGR interface mutation), relative to WT) is reported as “substantial reduction in TM shift”. For the same molecule, the TM (PARP-1 D45A; D45A with DNA (2.5 μM), TM without BAD 46.77) was 46.61, the TM (PARP-1 D45A; D45A, no DNA, TM without BAD 46.20) was 46.68 and the “release of full-length PARP-1 ΔHD from the labeled DNA” value (PARP-1 ΔHD) was “did not prevent the rapid release”.
